Marks after values point to notes of the source that are not given here.
Assays:
[1] = biological target: T1, BTK (Homo sapiens, UniProt Q06187); experiment: BTK levels in NAMALWA cells (Western blot); format: cell-based; conditions: 4 hours EBSS starvation
T1 construct: endogenous in cells; host or cells: NAMALWA
Method: The following protocol was used to test the effect of exemplary compounds on BTK levels in NAMALWA cells.
On Day 1, NAMALWA cells were seeded in 6 well plates at concentration of 2×10^6/well and were incubated overnight. On Day 2, the cells were treated at indicated concentrations following 4 hours of starvation in Earle's Balanced Salt Solution (EBSS, Gibco, #24010-043). After compound treatment for 24 hours, cells were collected and samples were prepared. Fresh, ice cold 1×RIPA lysis buffer supplemented with protease and phosphatase inhibitors was then added to the cell samples, followed by incubation on ice for 30 minutes, and then cells samples were collected. Cell samples were then centrifuged at 4° C., 12,000 rpm for 15 minutes and the resulting supernatant was collected. Protein concentrations within the collected samples were then measured using BCA kit (Solarbio, PC0020), and the cell lysate was mixed with SDS loading buffer and heated at 100° C. for 5 minutes.
15 μg of protein from the samples prepared above was loaded in 4-12% Bis-Tris Gels in 1×MOPS buffer, and the samples were run at 120 V for 120 min. Transfer of the resulting gels was then carried out using the Transblot system with NC membrane, and the membranes were blocked with 5% BSA in TBST for 1 hr at room temperature. Membrane hybridization was then carried out overnight at 4° C. with primary antibodies (anti-BTK, Cell Signaling Technology #8547, Rabbit, 1:1000 diluted in 1% BSA in TBST), and the resulting membranes were washed with TBST for 3×10 min at RT, and then incubated with second antibodies (Goat anti-Rabbit IgG H&L, IRDye® 800CW, LI-COR, 926-32211, 1:5000 diluted in 1% BSA in TBST) in 1% BSA for 1 hr at room temperature. After washing the resulting membranes with TBST for 10 min, 3 times at room temperatures, the membranes were imaged using a Li-COR imaging system.
Table 3 below summarizes the normalized BTK levels in NAMALWA cells treated with the exemplary compounds of Examples 6-8 for 24 hours.

[2] = biological target: T2, KRAS (Homo sapiens, UniProt P01116, G12C); experiment: KRAS levels in NCI-H2030 cells (Western blot); format: cell-based
T2 construct: endogenous in cells; host or cells: NCI-H2030
Method: The following protocol was used to test the effect of exemplary compounds on KRAS levels in NCI-H2030 cells.
On Day 1, seed NCI-N2030 cells were placed into 6-well plates (3.5×10^5 cells/well/2 mL) and incubated for 24 hours. On Day 2, 6 μL compound solutions were added into testing wells in order to obtain compound concentrations of 3.33 μM and 10 μM—with DMSO concentrations of 0.3%. The wells were thoroughly agitated and incubated for 24 hours. On Day 3, the supernatant in the testing wells was discarded, and the testing wells were washed once with 1 mL of cold PBS. Then, 100 μL of RIPA buffer (Boston BioProducts BP-115D) was added to the testing wells with 1× complete protease inhibitor (Roche, #4693116001) and phosphatase inhibitor (Roche, #4906837001). The wells were then agitated by pipetting a few times, the testing plates were held on ice for 30 minutes to affect complete lysis of the cells. The cell lysate from the testing wells was then collected into EP tubes, and the tubes were spun at about 20000×g for 10 minutes at 4° C., before collecting the supernatant from the testing cells.
Protein concentrations in the collected supernatants were measured using BCA methods. The cell lysate was mixed with 5× NuPAGE SDS Loading Buffer and heated at 100° C. for 10 minutes in a heat block. Then 15 μL samples (15 μg) were loaded into 26-well SDS-PAGE gel (Novex, WXP81626BOX) and the gels were processed at 120 V for 1.5 hours, prior to electrotransfer to an NC membrane using a wet-transfer method with 250 mA for 1.5 hours. The resulting membrane was then blocked for 1 hours with LICOR blocking buffer (LI-COR, 927-70001), and was then incubated with a primary antibody 1:1000 (Anti-KRAS (LS-C175665)) that was previously prepared in block buffer at 4° C. overnight. Then, the membrane was washed three times with 1×TBST for 5 minutes each washing, and the membrane was incubated with a secondary antibody GAM 1:5000 (anti-mouse IgG (LI-COR, 926-68070)) for 1 hour at room temperature. The membrane was then washed three times with 1×TBST for 5 minutes each washing, and the membrane was read on LiCOR.
Table 2 below summarizes the normalized KRAS levels in NCI-H2030 cells that were treated with the exemplary compounds of Examples 1-3 for 24 hours.

T1 sequence (Q06187 whole entry): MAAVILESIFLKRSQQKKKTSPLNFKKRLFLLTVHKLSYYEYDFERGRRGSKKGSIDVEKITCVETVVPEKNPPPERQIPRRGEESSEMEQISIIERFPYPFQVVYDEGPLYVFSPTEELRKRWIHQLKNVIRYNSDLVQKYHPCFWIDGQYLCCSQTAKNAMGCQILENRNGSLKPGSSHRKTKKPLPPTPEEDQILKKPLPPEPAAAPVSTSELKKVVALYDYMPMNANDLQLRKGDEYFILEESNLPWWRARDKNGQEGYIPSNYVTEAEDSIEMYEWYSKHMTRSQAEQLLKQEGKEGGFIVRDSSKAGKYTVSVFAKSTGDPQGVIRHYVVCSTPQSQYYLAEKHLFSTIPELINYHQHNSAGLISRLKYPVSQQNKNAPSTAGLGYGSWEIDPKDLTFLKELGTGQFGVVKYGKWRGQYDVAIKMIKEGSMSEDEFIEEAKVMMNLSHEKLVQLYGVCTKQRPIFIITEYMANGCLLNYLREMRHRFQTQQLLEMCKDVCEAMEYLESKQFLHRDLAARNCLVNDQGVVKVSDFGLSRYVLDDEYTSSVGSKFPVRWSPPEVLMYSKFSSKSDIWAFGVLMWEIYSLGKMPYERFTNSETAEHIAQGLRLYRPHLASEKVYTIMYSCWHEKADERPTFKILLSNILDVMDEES

SMILES	Normalized BTK levels in NAMALWA cells treated with Compounds for 24 hours after 4 hours of starvation in EBSS ([1]; 3.33 μM compound concentration)	Normalized BTK levels in NAMALWA cells treated with Compounds for 24 hours after 4 hours of starvation in EBSS ([1]; 10 μM compound concentration)	Normalized KRAS levels in NCI-H2030 cells treated with Compounds for 24 hours ([2]; 3.33 μM compound concentration)	Normalized KRAS levels in NCI-H2030 cells treated with Compounds for 24 hours ([2]; 10 μM compound concentration)	other results
Nc1ncnc2c1c(-c1ccc(Oc3ccccc3)cc1)nn2C1CCN(CCOCCOCCOCCN/C(=C2\C(=O)Nc3ccc(Br)cc32)c2cccc(O)c2)CC1.O=CO [Example 7, (3Z)-3-[[2-[2-[2-[2-[4-[4-amino-3-(4-phenoxyphenyl)pyrazolo[3,4-d]pyrimidin-1-yl]-1-piperidyl]ethoxy]ethoxy]ethoxy]ethylamino]-(3-hydroxyphenyl)methylene]-5-bromo-indolin-2-one formate]	67.0%	48.2%	–	–	–
C=C(F)C(=O)N1CCN(c2nc(OC[C@@H]3CCCN3CCCOCCOc3c(Br)cc(C=C4C(=O)Nc5ccc(I)cc54)cc3Br)nc3c2CCN(c2cccc4cccc(Cl)c24)C3)C[C@@H]1CC#N [Example 2, 2-((S)-4-(7-(8-chloronaphthalen-1-yl)-2-(((S)-1-(3-(2-(2,6-dibromo-4-((5-iodo-2-oxoindolin-3-ylidene)methyl)phenoxy)ethoxy)propyl)pyrrolidin-2-yl)methoxy)-5,6,7,8-tetrahydropyrido[3,4-d]pyrimidin-4-yl)-1-(2-fluoroacryloyl)piperazin-2-yl)acetonitrile]	–	–	45.1%	48.6%	–
C=C(F)C(=O)N1CCN(c2nc(OC[C@@H]3CCCN3CCCOCCOCCOCCOc3c(Br)cc(C=C4C(=O)Nc5ccc(I)cc54)cc3Br)nc3c2CCN(c2cccc4cccc(Cl)c24)C3)C[C@@H]1CC#N [Example 1, 2-((S)-4-(7-(8-chloronaphthalen-1-yl)-2-(((S)-1-(3-(2-(2-(2-(2,6-dibromo-4-((5-iodo-2-oxoindolin-3-ylidene)methyl)phenoxy)ethoxy)ethoxy)ethoxy)propyl)pyrrolidin-2-yl)methoxy)-5,6,7,8-tetrahydropyrido[3,4-d]pyrimidin-4-yl)-1-(2-fluoroacryloyl)piperazin-2-yl)acetonitrile]	–	–	84.9%	87.5%	–
Nc1ncnc2c1c(-c1ccc(Oc3ccccc3)cc1)nn2C1CCN(CCOCCOCCOCCOCCN2C(=O)C(=Cc3cc(Br)c(O)c(Br)c3)c3cc(I)ccc32)CC1.O=CO [Example 6, 1-(14-(4-(4-amino-3-(4-phenoxyphenyl)-1H-pyrazolo[3,4-d]pyrimidin-1-yl)piperidin-1-yl)-3,6,9,12-tetraoxatetradecyl)-3-(3,5-dibromo-4-hydroxybenzylidene)-5-iodo indolin-2-one formate]	–	–	–	–	Normalized BTK levels in NAMALWA cells treated with Compounds for 24 hours after 4 hours of starvation in EBSS ([1]; 10 μM column, footnote: tested at 11.1 uM from 100 uM top concentration): ~58.7%*; Normalized BTK levels in NAMALWA cells treated with Compounds for 24 hours after 4 hours of starvation in EBSS ([1]; 30 μM column, footnote: tested at 33.3 uM from 100 uM top concentration): ~30.1%*
Nc1ncnc2c1c(-c1ccc(Oc3ccccc3)cc1)nn2C1CCN(CCOCCOCCN/C(=C2\C(=O)Nc3ccc(Br)cc32)c2cccc(O)c2)CC1 [Example 8, (3Z)-3-[[2-[2-[2-[4-[4-amino-3-(4-phenoxyphenyl)pyrazolo[3,4-d]pyrimidin-1-yl]-1-piperidyl]ethoxy]ethoxy]ethylamino]-(3-hydroxyphenyl)methylene]-5-bromo-indolin-2-one]	83.1%	66.3%	–	–	–
C=C(F)C(=O)N1CCN(c2nc(OC[C@@H]3CCCN3CCCOCCOCCOc3c(Br)cc(C=C4C(=O)Nc5ccc(I)cc54)cc3Br)nc3c2CCN(c2cccc4cccc(Cl)c24)C3)C[C@@H]1CC#N [Example 3, 2-((S)-4-(7-(8-chloronaphthalen-1-yl)-2-(((S)-1-(3-(2-(2-(2,6-dibromo-4-((5-iodo-2-oxoindolin-3-ylidene)methyl)phenoxy)ethoxy)ethoxy)propyl)pyrrolidin-2-yl)methoxy)-5,6,7,8-tetrahydropyrido[3,4-d]pyrimidin-4-yl)-1-(2-fluoroacryloyl)piperazin-2-yl)acetonitrile]	–	–	63.0%	65.7%	–

From patent publication US20240100172A1, “METHODS AND COMPOUNDS FOR TARGETED AUTOPHAGY” (Hangzhou Jijing Pharmaceutical Technology Limited, priority 2020, published 2024)
